Conditions: rat, in vivo, iv, 10 mg/kg
Protocol: The delivery vehicle for drug administration was isotonic saline. Rat blood was collected from the catheter into K2-EDTA tubes […] at time points of 1, minute, 5 minutes, 15 minutes, 1 hour, 4 hours, 8 hours and 24 hours. Plasma was isolated by centrifugation at 1000 RPM for 5 minutes, and 150 uL of extraction solution (ice cold methanol/100 ng/mL daunorubicin internal standard) was added to 50 uL of each plasma sample. Samples were then vortexed for 10 minutes, centrifuged at 13,000 RPM for 10 minutes, and 150 uL of the supernatant is transferred to HPLC vials for analysis. […] A 5 μL sample injection was made onto a Waters 4 μm Nova Pak C18 (3.9×150 mm) at 30° C. with a flow rate of 0.750 mL per minute of 10 mM phosphate buffer (pH=1.4), methanol and acetonitrile (gradient from 70/10/20 to 40/10/50 for buffer/methanol/acetonitrile was made over eight minutes).

SMILES: COc1cccc2c1C(=O)c1c(O)c3c(c(O)c1C2=O)C[C@@](O)(C(C)=O)C[C@@H]3O[C@H]1C[C@H](N)[C@H](O)[C@H](C)O1 [Free Daunorubicin, daunorubicin]
- AUC (area under the concentration versus time curve, exposure of daunorubicin to the plasma compartment): 1300 ng·h/mL
- Half-life (terminal, elimination): 3.3 h

Reference: patent US20140271885A1, “COPOLYMERS FOR STABLE MICELLE FORMULATIONS” (Intezyne Technologies, Inc., priority 2013, published 2014)
